Reference: patent US5486515A, “2-fluoroalkyl-1,4-benzoxaxines as potassium channel mediators” (Zeneca Limited, priority 1993, dated 1996)
Read-outs that look alike come from different tables or passages of the source.

Tests used:
[1] = tested on: bladder detrusor smooth muscle; test: first in vitro test: relaxation of guinea pig bladder detrusor strips contracted with 15 mM KCl; type: cell-based, Male albino Hartley guinea pigs; details: for IC50: Cavia porcellus; for relaxation and reduction of the myogenic activity of guinea pig detrusor strips: first test, calcium channel blockers
Method: Male albino Hartley guinea pigs (450-500 g) are sacrificed by carbon dioxide induced asphyxiation and quickly exsanguinated. The lower abdominal cavity is opened and the urinary bladder isolated. […] The solution is warmed to 37° C. and gassed with 95% O2 and 5% CO2. With vigorous bubbling, the solution should have a pH value close to 7.4.
The dome of the washed bladder is cut off and discarded; the remaining bladder is placed on a gauze in a Petri dish containing the buffer solution. A mid-ventral longitudinal cut is made with scissors to open the bladder. The strips cut from the dome and the base edge are discarded. The remaining detrusor mid-section is cut into two horizontal strips with an approximate width of 2.0 mm. These two strips are further bisected at the mid-dorsal section, creating four strip of similar dimensions. Each strip thus contains both dorsal and ventral portions of the bladder.
The two ends of each individual strip are tied to a glass support rod and a force-displacement transducer (Grass model FR03), respectively, with 4-0 black braided silk suture.
The transducers are connected to a polygraph (Grass model 7E), which is calibrated at 5 mV/cm and the calibration checked for linearity with weights of 5 and 0.5 grams. The analog electrical output signals from the polygraph are digitized by a Modular Instrument Micro 5000 signal processing system using Biowindow Data Acquisition Software, which is run under the Microsoft OS/2 operating system with an IBM-compatible PC.
The detrusor strips on the glass rod are secured in 20 ml tissue baths and allowed to equilibrate under a preload tension of 2 grams. During the following 45 to 60 min equilibration period, the tissue is washed with fresh buffer solution at 15 min interval, with the tension adjusted, if necessary, to 2 grams prior to washing. After the equilibration period, a priming dose of 15 mM KCl (total concentration in the bath) is applied. The tissue is washed after 10 min and washed twice more at 15 min intervals with tension adjusted to 2 grams before each washing.
When the tissue relaxes to a steady state after the final washing, 15 mM KCl is again applied. Once the myogenic activity of the tissue reaches a steady state, the baseline data are acquired through the Biowindows Data Acquisition System by averaging 5 min of the myogenic data sampled at 32 Hz. Once the baseline is acquired, the experimental compounds are dosed in a cumulative manner in half log unit increments. The contact time for each dose is 10 min with the final 5 min being the period of time that the dose reponse data are required. […] The effect of the compound at each dose is expressed as % of the maximum inhibitory response, which is further normalized with respect to the corresponding effect of the compound vehicle control. The normalized response is then used to derive the IC50 of the relaxant activity of the compound through the application of Marquardt' s nonlinear iterative curve fitting technique to a standard dose-response function.

detrusor smooth muscle = test: second in vitro test: relaxation of guinea pig detrusor strips contracted with 80 mM KCl; type: cell-based; details: for potency in the second test relative to the first test: 80 mM KCl vs 15 mM KCl; for relaxation and reduction of the myogenic activity of guinea pig detrusor strips: second test, calcium channel blockers
Method: This second in vitro test is similar to the one described above with regard to tissue preparation and data acquisition. However, the following exceptions are noted. In this second test, the contraction of the detrusor strips during priming and after the equilibration period is achieved with 80 mM instead of 15 mM KCl (total concentration in the bath).

[2] = ability to relax bladder smooth muscle, comparison with non-fluorinated analogs, read-out: IC50

Structure (SMILES)	IC50 [1, 2] [nM]	relaxation and reduction of the myogenic activity of guinea pig detrusor strips (detrusor smooth muscle; 80 mM KCl)	other results
CC1(C)CN(c2cccc[n+]2[O-])c2cc(S(=O)(=O)c3ccccc3)ccc2O1 [*]	4100		
CC1(C)CN(c2cccc[n+]2[O-])c2cc([N+](=O)[O-])ccc2O1 [@]	74		
CC1(C(F)(F)F)CN(c2cccc[n+]2[O-])c2cc(S(=O)(=O)c3ccccc3)ccc2O1 (stereo not drawn) [Example 1, 2-(2-Methyl-2-trifluoromethyl-6-phenylsulfonyl-3,4-dihydro-2H-1,4-benzoxazin-4-yl)pyridine-N-oxide]	540		IC50 ([1]; guinea pig detrusor strips, read-out: IC50 (50% decrease in the in vitro contraction of the bladder tissue)): 540 nM
O=[N+]([O-])c1ccc2c(c1)N(c1cccc[n+]1[O-])CC(CF)(CF)O2 [Example 4, 2-(2,2-(bis)Fluoromethyl-6-nitro-3,4-dihydro-2-H-1,4-benzoxazine-4-yl)pyridine-N-oxide]	25		
O=S(=O)(c1ccccc1)c1ccc2c(c1)N(c1cccc[n+]1[O-])CC(CF)(CF)O2 [Example 5, 2-(2,2-(bis)Fluoromethyl-6-phenylsulfonyl-3,4-dihydro-2H-1,4-benzoxazine-4-yl)pyridine-N-oxide]	2250		
O=S(=O)(c1ccccc1)c1ccc2c(c1)N(c1cccc[n+]1[O-])CC(C(F)F)(C(F)F)O2 [Example 6, 2-(2,2-bis(Difluoromethyl)-6-phenylsulfonyl-3,4-dihydro-2H-1,4-benzoxazine-4-yl)pyridine-N-oxide]	360		
O=[N+]([O-])c1ccc2c(c1)N(c1cccc[n+]1[O-])CC(C(F)F)(C(F)F)O2 [Example 8, 2-(2,2-bis(Difluoromethyl)-6-nitro-3,4-dihydro-2H-1,4-benzoxazine-4-yl)pyridine-N-oxide]	7		
CC1(C)Oc2ccc(C#N)cc2C(N2CCCC2=O)C1O (stereo not drawn) [cromakalim]			relaxant activity in the second test (detrusor smooth muscle; 80 mM KCl, at concentrations as high as 30 μM): insignificant relaxant activity; IC50 ([1]; putative potassium channel opener, read-out: relaxant activity IC50 in the first test): 600 to 900 nM
COC(=O)C1=C(C)NC(C)=C(C(=O)OC(C)C)C1c1cccc2nonc12 (stereo not drawn) [isradipine]		able to relax and reduce the myogenic activity	potency in the second test relative to the first test (detrusor smooth muscle): more potent in the second test; relaxation and reduction of the myogenic activity of guinea pig detrusor strips [1]: able to relax and reduce the myogenic activity
COC(=O)C1=C(C)NC(C)=C(C(=O)OC)C1c1ccccc1[N+](=O)[O-] [nifedipine]		able to relax and reduce the myogenic activity	
COCCOC(=O)C1=C(C)NC(C)=C(C(=O)OC(C)C)C1c1cccc([N+](=O)[O-])c1 (stereo not drawn) [nimodipine]		able to relax and reduce the myogenic activity	potency in the second test relative to the first test (detrusor smooth muscle): more potent in the second test; relaxation and reduction of the myogenic activity of guinea pig detrusor strips [1]: able to relax and reduce the myogenic activity
COc1ccc(Cc2nccc3cc(OC)c(OC)cc23)cc1OC [papaverine]			abolition of the KCl-induced tension (detrusor smooth muscle; 80 mM KCl, 300 μM, maximum response): totally abolished
COc1ccc(CCN(C)CCCC(C#N)(c2ccc(OC)c(OC)c2)C(C)C)cc1OC (stereo not drawn) [verapamil]		able to relax and reduce the myogenic activity	potency in the second test relative to the first test (detrusor smooth muscle): more potent in the second test; relaxation and reduction of the myogenic activity of guinea pig detrusor strips [1]: able to relax and reduce the myogenic activity
